# Source: ChEMBL document CHEMBL3784969, “Pharmacokinetics of flutamide in patients with renal insufficiency” (Br J Clin Pharmacol, 1999)
# Assay: Plasma protein binding in healthy geriatric volunteer by equilibrium dialysis method
# Type: ADME, cell-free
# Conditions: human, read-out: PPB
compound,measurement,value
CC(C)(O)C(=O)Nc1ccc([N+](=O)[O-])c(C(F)(F)F)c1 [HYDROXYFLUTAMIDE],fraction unbound,< 0.06
